Our source for the IC50 values is patent publication US20230219890A1, “BICYCLIC COMPOUNDS AND USE THEREOF” (Betta Pharmaceuticals Co.,Ltd, priority 2020, published 2023).

The structures appear in SMILES notation.

The test system of one test is VEGFA (786-O cells). The test is described as follows: VEGFA ELISA Assay (IC50). The format is cell-based. The note with it: Homo sapiens, VEGFA in culture supernatant by ELISA. As for the experimental part: 786-O cells in exponential growth phase were seeded in 96-well plate, the cell concentration was 65,000 cells per milliliter of culture medium, 180 ul per well. Compounds were serial diluted to the indicated concentration, and 20 ul compound solutions of different concentrations were added to the corresponding cell wells. The final compound concentrations were as follows (nM): 1.5, 4.6, 13.7, 41.2, 123.5, 370.4, 1111.1, 3333.3, 10000. After 24 hours of incubation, the cell culture supernatant was taken, and the VEGFA concentration was determined using an ELISA kit (purchased from abcam). Finally, the reaction was terminated, and the light absorbance value of each well was measured using a microplate reader at a wavelength of […], and IC50 was calculated by GraphPad Prism. Cell Titer-Glo reagent was used to measure cell viability.
A general note: ELISA stands for enzyme-linked immunosorbent assay.

For test [1], the system named is HIF2α reporter cells (786-O-HIF2α-Luc cells). The test is described as follows: Luciferase Assay (HIF2α reporter cells). The format is cell-based. As to conditions: 18-20 h, Steady-Glo luminescence. As for the experimental part:
Luciferase LUC gene was transfected into 786-O cells (purchased from ATCC) using Lipofectamine 3000 Transfection Reagent (purchased from Invitrogen) to construct HIF2α reporter cells (786-O-HIF2α-Luc cells). Experiments were performed when 786-O-HIF2α-Luc cells were in logarithmic growth phase, culture medium (RPMI MEDIUM 1640, purchased from Invitrogen) was abandoned, the cells were rinsed with PBS three times; trypsin (TrypLE, purchased from invitrogen) was added to digest cells, the digestion was terminated by washing the cells with culture medium, 10% fetal bovine serum, 1% penicillin and streptomycin. The cells were collected by centrifugation, rinsed twice with PBS to remove the phenol red in the medium, and then resuspended the cells to an appropriate concentration, and detected the cell density and viability, and made sure the cell viability is above 90% before it can be used for experiments.
The gradient concentration compound was transferred into 384-well plate, 25 nl/well using Echo 550 (non-contact sonic pipetting system, purchased from Labcyte); the cells were seeded in 384-well plate, 4500 cells/well, with 25 μl of culture medium, to make the final concentrations as follows: 10000, 3333, 1111, 370, 123, 41.1, 13.7, 4.6, 1.5, 0.5 nM. Cells were incubated at 37° C., 5% CO2 for 18-20 h; Steady-Glo™ Luciferase Assay System (purchased from Promega) was added to 384 well-plate, 25 μl/well; the luminescence value was detected with Envision. The % inhibition rate was calculated according to the RLU (Record Luminescence) signal value of each well, and then the IC50 of the corresponding compound was calculated by Graphpad 8.0.

Setting [2] is: 786-0, 24 h, 24 hours incubation, numeric values.
Where [3] appears, read: 786-0, 24 h, 24 hours incubation, class symbols.

As usually defined, the IC50 is the concentration at which inhibition is half-maximal. Read a low IC50 as inhibition by little substance. For `OC1c2c(C(F)(F)F)cn(-c3ccc(F)c(C(F)(F)F)c3)c2CCC1(F)F` (stereo not drawn) [Example 156, 5,5-difluoro-1-(4-fluoro-3-(trifluoromethyl)phenyl)-3-(trifluoromethy)-4,5,6,7-tetrahydro-1H-indol-4-ol], the IC50 was determined as 15.6 nM in the test on VEGFA (786-O cells) (setting [2]) and 70.5 nM in test [1] (numeric values).

For `N#Cc1ccc(-n2cc(C(F)(F)F)c3c2CCC(F)(F)[C@H]3O)cc1C#N` [Example 167, (S)-4-(5,5-difluoro-4-hydroxy-3-(trifluoromethyl)-4,5,6,7-tetrahydro-1H-indol-1-yl)phthalonitrile], the results for the IC50 (in the test on VEGFA (786-O cells) (setting [3]); in test [1] (numeric values)) were at most 500 nM and 69.9 nM, respectively.

In the case of `N#Cc1cc(F)cc(-n2cc(C(F)(F)F)c3c2CCC(F)(F)C3O)c1` (stereo not drawn) [Example 12, 3-(5,5-difluoro-4-hydroxy-3-(trifluoromethyl)-4,5,6,7-tetrahydro-1H-indol-1-yl)-5-fluorobenzonitrile], the IC50 in the test on VEGFA (786-O cells) (setting [2]) is 67.5 nM; in test [1] (class symbols), at most 500 nM.

In the case of `N#Cc1cc(-n2cc(C(F)(F)F)c3c2CCC(F)(F)C3O)ccc1F` (stereo not drawn) [Example 121], the values for the IC50 (in the test on VEGFA (786-O cells) (setting [2]); in test [1] (numeric values)) were 31 nM and 98.5 nM, respectively.

On to `N#Cc1ccc(-n2cc(C(F)(F)F)c3c2CCC(F)(F)C3O)cc1Cl` (stereo not drawn) [Example 124, 2-chloro-4-(5,5-difluoro-4-hydroxy-3-(trifluoromethyl)-4,5,6,7-tetrahydro-1H-indol-1-yl)benzonitrile], for which the IC50 in the test with VEGFA (786-O cells) (786-0, 24 hours incubation, numeric values) is 8.5 nM; in test [1] (class symbols), at most 500 nM.

On to `OC1c2c(C(F)(F)F)cn(-c3cc(F)c(F)c(F)c3)c2CCC1(F)F` (stereo not drawn) [Example 148], for which the IC50 (in the test on VEGFA (786-O cells) (setting [3]); in test [1] (class symbols)) was at most 500 nM in each case.

In the case of `OC1c2c(C(F)(F)F)cn(-c3cc(F)cc(Cl)c3)c2CCC1(F)F` (stereo not drawn) [Example 7, 1-(3-chloro-5-fluorophenyl)-5,5-difluoro-3-(trifluoromethyl)-4,5,6,7-tetrahydro-1H-indol-4-ol], the IC50 in the test on VEGFA (786-O cells) (setting [2]) is 30.7 nM; in test [1] (numeric values), 57.7 nM.

As to `N#Cc1cc(F)cc(-n2cc(C(F)(F)F)c3c2CCC(F)C3O)c1` (stereo not drawn) [Example 139, 3-fluoro-5-(5-fluoro-4-hydroxy-3-(trifluoromethyl)-4,5,6,7-tetrahydro-1H-indol-1-yl)benzonitrile], the concentration for half-maximal inhibition (IC50) in the test with VEGFA (786-O cells) (setting [3]) is at most 500 nM.

On to `N#Cc1cc(-n2cc(I)c3c2CCC(F)(F)C3O)ccc1F` (stereo not drawn) [Example 5, 5-(5,5-difluoro-hydroxy-3-iodo-4,5,6,7-tetrahydro-1H-indol-1-yl)-2-fluorobenzonitrile], for which the half-inhibitory concentration (IC50) in the test on VEGFA (786-O cells) (setting [3]) was in the range of 500 to 1500 nM.

In the case of `N#Cc1cc(F)cc(-n2nc(C(F)(F)F)c3c2CCC(F)(F)C3O)c1` (stereo not drawn) [Example 92], in the test on VEGFA (786-O cells) (setting [3]), the IC50 was above 1500 nM.

`N#Cc1cc(-n2cc(C(F)(F)F)c3c2CCC(F)(F)[C@@H]3F)ccc1F` (single isomer, unassigned) [Example 197] gave an IC50 in the test with VEGFA (786-O cells) (setting [3]) of at most 500 nM.

As for `Fc1cc(Cl)cc(-n2cc(C(F)(F)F)c3c2CCc2cn[nH]c2-3)c1` [Example 202, 6-(3-chloro-5-fluorophenyl)-8-(trifluoromethyl)-1,4,5,6-tetrahydropyrrolo-[2,3-g]indazole], in the test on VEGFA (786-O cells) (setting [3]), the concentration for half-maximal inhibition (IC50) is above 1500 nM.

Turning to `OC1c2c(C(F)(F)F)cn(-c3cc(F)cc(C(F)(F)F)c3)c2CCC1(F)F` (stereo not drawn) [Example 24], the IC50 with VEGFA (786-O cells) (setting [3]) is at most 500 nM.

With `OC1c2c(C(F)(F)F)cn(-c3cc(F)cc(Cl)c3)c2C(F)CC1F` (stereo not drawn) [Example 141], in the test with VEGFA (786-O cells) (setting [3]), the IC50 is at most 500 nM.

For the compound `OC1c2c(-c3ccco3)cn(-c3cc(F)cc(Cl)c3)c2CCC1(F)F` (stereo not drawn) [Example 53, 1-(3-chloro-5-fluorophenyl)-5,5-difluoro-3-(furan-2-yl)-4,5,6,7-tetrahydro-1H-indol-4-ol], in the test on VEGFA (786-O cells) (setting [3]), the IC50 is at most 500 nM.

In the test on VEGFA (786-O cells) (setting [2]), `OC1c2c(C(F)(F)F)cn(-c3ccc(F)cc3)c2CCC1(F)F` (stereo not drawn) [Example 160, 5,5-difluoro-1-(4-fluorophenyl)-3-(trifluoromethyl)-4,5,6,7-tetrahydro-1H-indol-4-ol] came in with an IC50 of 46.1 nM.

Consider `OC1c2c(C(F)(F)F)cn(-c3cc(F)cc(Br)c3)c2CCC1(F)F` (stereo not drawn) [Example 22], for which the IC50 in the test on VEGFA (786-O cells) (setting [2]) came out at 55.4 nM.
